Results: patent US20130230486A1, “COMPOSITIONS AND METHODS TO INDUCE TARGETED APOPTOSIS” (priority 2010, published 2013)

Legend:
caspase-8 = assay: Caspase-8 activation (Fas-induced apoptosis) in lung fibroblasts; assay type: cell-based, human; settings: MRC5
Procedure: To assess the effects of these cytokines on PTPN13 expression, non-diseased normal human lung fibroblasts (NHLF), fibrotic human lung fibroblasts (FHLF) and a fetal lung fibroblast cell line, MRC5 cells, were treated with TNF-α (10/ng/ml), IFN-γ (50 U/ml) or with both cytokines for 6 hours. PTPN13 expression was measured by quantitative PCR (FIG. 2A). The primary lung fibroblasts from normal and fibrotic lung had equivalent levels of PTPN13 expression to the MRC5 lung fibroblast cell line. […] Treatment with TNF-α alone caused a 40% decrease in PTPN13 expression. Combined exposure to TNF-α and IFN-γ decreased PTPN13 mRNA expression by 80%. Protein lysates from normal, fibrotic and MRC5 fibroblasts treated for 36 hours with TNF-α (10/ng/ml), IFN-γ (50 U/ml) or with both cytokines were then analyzed for PTPN13 expression. […]
In one exemplary method, to assess whether PTPN13 expression prevents Fas-induced apoptosis, PTPN13 expression was knocked-down using siRNA. […] Apoptosis was assayed by quantifying activation of caspase-3 and caspase-8 (FIG. 3C).
In death-receptor mediated apoptosis, formation of the DISC (Death-Inducing Signaling Complex) is essential for the initiation of apoptosis. […] The cells were lysed, immunoprecipitated with anti-Fas antibody, and co-immunoprecipitated FADD and caspase-8 were detected by immunoblotting. […]

Fas phospho-Y291 = assay: Tyrosine phosphorylation of Fas at tyrosine 291 by Western blot in MRC5 lung fibroblasts; assay type: cell-based, human; settings: pervanadate 150 μM, time dependent
Procedure: PTPN13 has been shown in astrocytoma cells to dephosphorylate Fas at tyrosine 291. Little is known about the regulatory function of tyrosine phosphorylation of Fas. In another exemplary embodiment, to assess the effect of TNF-α and IFN-γ sensitization on the levels of Fas tyrosine phosphorylation, MRC5 lung fibroblasts were treated with TNF-α and IFN-γ for increasing amounts of time. Because TNF-α is known to increase tyrosine phosphorylation of many proteins, such as MAP kinases and AKT, within minutes following stimulation, the kinetics of TNF-α and IFN-γ induced tyrosine phosphorylation of Fas were assessed. MRC5 lung fibroblasts were treated with TNF-α (10 ng/ml) and IFN-γ (50 U/ml) for up to 48 hours. The cells were lysed and analyzed by western blot for phosphorylated Fas, using a phospho-specific antibody for Fas phosho-Y291. TNF-α and IFN-γ increased tyrosine phosphorylation of Fas at tyrosine residue 291 beginning at 18 hours. […] The pervanadate treated MRC5 cells were lysed and analyzed the tyrosine phosphorylation of Fas by western blotting. […] We then detected phosphorylated Fas by Western blot, using a phospho-specific antibody for Fas tyrosine residue 291. […]
FIG. 5: Inhibition of tyrosine phosphatase activity sensitizes lung fibroblasts to Fas-induced apoptosis. […] Caspase-8 activation was measured by a fluorescence based assay. […]

Substance: pervanadate
- caspase-8 activity over unstimulated cells (caspase-8; 150 μM pervanadate 2 hour pre-treatment, then Fas-activating antibody 250 ng/ml): 6 fold
- caspase-8 activity above untreated cells (caspase-8; 150 μM pervanadate alone): 2 fold
- tyrosine phosphorylation of Fas (Y291) (Fas phospho-Y291): increased
